From US5137811A, “Method for diagnosing periodontal diseases with a substrate specific for aminopeptidase activity of periodontopathic bacteria” (Sunstar Kabushiki Kaisha, priority 1986, dated 1992)
Where a SMILES comes first, the peptide text is derived from it. The star is where a group is joined. βNA = c1ccc2cc(N*)ccc2c1; Cbz = O=C(OCc1ccccc1)*; Bz = O=C(c1ccccc1)*

Assays:
[1] = system: periodontopathic bacteria specific aminopeptidase activity; assay: Hydrolytic activity of gingival crevicular fluid specimens, OD525 (Experiment 6); type: biochemical
Description: (§1) Substrate compounds for aminopeptidase enzyme having various color developing groups derived from β-naphthylamine were dissolved in 0.1M Tris-HCl buffer (pH 7.0) at the concentration of 0.2 mM to obtain substrate solutions.
(§2) To the substrate solution (1.5 ml) was added the above cell suspension (0.3 ml) and reacted at 37° C. for 60 minutes. After completion of the reaction, a coloring reagent [prepared by dissolving diazonium salt of Garnet GBC in 1M acetate buffer (containing 10% Tween 20, pH: 4.2) at the concentration of 0.5 mg/ml] was added and, after 15 minutes, the absorption at 525 nm was determined with a spectrophotometer.
Specimens of gingival crevicular fluid were collected with paper points from five subjects who were considered to be healthy from their clinical state, six subjects with gingivitis and six subjects with periodontitis. Each specimen was dispersed in Ringer's solution (1.5 ml), and the relative amount of spirochete to total bacteria: [formula] was determined with a phase contrast microscope. Further, the Ringer's solution (0.3 ml) was tested for hydrolytic activity using the substrate solution prepared in the same manner as described in Experiment 1. As substrates, there were used compounds of the formula [1], i.e., N-benzoylvalyl-glycyl-arginine-β-naphthylamide (BzVGR) and N-carbobenzoxy-valyl-glycyl-arginine-β-naphthylamide (CxVGR) were used.
According to the same manner as described in Experiment 4, hydrolytic activity was tested by using the compounds of the formulas and [2], i.e., glycyl-proline-βnaphthylamide (GP), N-benzoyl-arginyl-glycyl-phenylalanylproline-β-naphthylamide (BzRGFP), N-carbobenzoxy-valylglycyl-arginine-β-naphthylamide (CxVGR) and N-benzoylglycyl-arginine-β-naphthylamide (BzGR) alone or in combination. Hydrolytic activity was determined by measuring absorption at 525 nm (OD525) and expressed as follows.

Treponema denticola [2] = assay: Hydrolytic activity of oral anaerobe cell suspension on aminopeptidase substrates (Experiment 1); type: cell-based; conditions: four strains, substrate 0.2 mM, pH 7.0, 37° C., 60 minutes, Table 1
Method in brief: (§3)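 Treponema grown anaerobically in TYGVS (37 °C, 7 days) and other strains in brain heart infusion (37 °C, 48–72 h), then diluted to A660 1.0. Cells reacted 60 min at 37 °C with β-naphthylamine-derived substrates (0.2 mM solution, 0.1 M Tris-HCl pH 7.0). Garnet GBC coupling, A525 after 15 min; activity graded from mean released β-naphthylamine per strain.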

Bacteroides gingivalis = assay: as above; type: cell-based; conditions: five strains, substrate 0.2 mM, pH 7.0, 37° C., 60 minutes, Table 1
Method in brief: as §3

Capnocytophaga sp. = assay: as above; type: cell-based; conditions: four strains, substrate 0.2 mM, pH 7.0, 37° C., 60 minutes, Table 1
Method in brief: as §3

Fusobacterium nucleatum [3] = assay: as above; type: cell-based; conditions: three strains, substrate 0.2 mM, pH 7.0, 37° C., 60 minutes, Table 1
Method in brief: as §3

[4] = system: Actinobacillus actinomycetemcomitans; assay: as above; type: cell-based; conditions: four strains, substrate 0.2 mM, pH 7.0, 37° C., 60 minutes, Table 1
Method in brief: as §3

Actinomyces israelli [5] = assay: Hydrolytic activity of cell suspension, substrates alone or in combination (Experiment 3); type: cell-based; conditions: two strains, Table 3
Description: (§4) The strains of Treponema were anaerobically cultivated using TYGVS media at 37° C. for 7 days, while other bacterial strains were cultivated using brain heart infusion broth at 37° C. for 48 to 72 hours. Each culture was diluted to obtain a bacterial cell suspension, the absorption at 660 nm of which was 1.0.
as §1, §2
(§5) On the basis of the average amount of released β-naphthylamine in each strain, the hydrolytic activity was expressed as follows: […]
(§6) According to the same manner as described in Experiment 1, periodontopathic bacteria specific aminopeptidase activity was tested by using four strains of Treponema denticola, five strains of B. gingivalis, four strains of Actinobacillus actinomycetemcomitans, two strains of Actinomyces israelli and three strains of Fusobacterium nucleatum. Abbreviations in Table 3 are the same as those in Tables 1 and 2. Hydrolytic activity "+++" means "40≤release amount<80 nmol/ml" and "++++" means "release amount≥80 nmol/ml".

Treponema denticola [6] = assay: as above; type: cell-based; conditions: four strains, Table 3
Description: as §4, §1, §2, §5, §6

Fusobacterium nucleatum [7] = assay: as above; type: cell-based; conditions: three strains, Table 3
Description: as §4, §1, §2, §5, §6

B. gingivalis [8] = assay: as above; type: cell-based; conditions: five strains, Table 3
Description: as §4, §1, §2, §5, §6

[9] = system: Actinobacillus actinomycetemcomitans; assay: as above; type: cell-based; conditions: four strains, Table 3
Description: as §4, §1, §2, §5, §6

B. corporis = assay: Hydrolytic activity of cell suspension on aminopeptidase substrates (Experiment 2); type: cell-based; conditions: Table 2
Method in brief: (§7)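 Absorbance at 525 nm of β-naphthylamine coupled to Garnet GBC diazonium salt gave the readout, with activity scored on the average amount freed per strain. Suspensions at A660 1.0 were reacted with 0.2 mM substrates at pH 7.0, 37° C., for 60 minutes.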

Actinomyces israelli [10] = assay: as above; type: cell-based; conditions: two strains, Table 2
Method in brief: as §7

Treponema denticola [11] = assay: as above; type: cell-based; conditions: four strains, Table 2
Method in brief: as §7

B. denticola = assay: as above; type: cell-based; conditions: Table 2
Method in brief: as §7

Fusobacterium nucleatum [12] = assay: as above; type: cell-based; conditions: three strains, Table 2
Method in brief: as §7

B. gingivalis [13] = assay: as above; type: cell-based; conditions: five strains, Table 2
Method in brief: as §7

[14] = system: Actinobacillus actinomycetemcomitans; assay: as above; type: cell-based; conditions: four strains, Table 2
Method in brief: as §7

B. melaninogenicus = assay: as above; type: cell-based; conditions: two strains, Table 2
Method in brief: as §7

B. intermedius = assay: as above; type: cell-based; conditions: three strains, Table 2
Method in brief: as §7

Row | Structure (SMILES) | hydrolytic activity (average amount of released β-naphthylamine) (Treponema denticola [2]) | hydrolytic activity (average amount of released β-naphthylamine) (Bacteroides gingivalis) | hydrolytic activity (average amount of released β-naphthylamine) (Capnocytophaga sp.) | hydrolytic activity (average amount of released β-naphthylamine) (Fusobacterium nucleatum [3]) | hydrolytic activity (average amount of released β-naphthylamine) [4] | hydrolytic activity (release amount) (Actinomyces israelli [5]) | hydrolytic activity (release amount) (Treponema denticola [6]) | hydrolytic activity (release amount) (Fusobacterium nucleatum [7]) | hydrolytic activity (release amount) (B. gingivalis [8]) | hydrolytic activity (release amount) [9] | other results
1 | N=C(N)NCCC[C@H](NC(=O)CNC(=O)c1ccccc1)C(=O)Nc1ccc2ccccc2c1 [BzGR, N-benzoyl-glycyl-arginine-β-naphthylamide] (Bz-Gly-Arg-βNA) | ++ (20 ≤release amount<40 nmol/ml) | +++ (release amount≥40 nmol/ml) | - (release amount<5 nmol/ml) | - (release amount<5 nmol/ml) | - (release amount<5 nmol/ml) | - (release amount<5 nmol/ml) | ++ (20 ≤release amount<40 nmol/ml) | - (release amount<5 nmol/ml) | +++ (40≤release amount<80 nmol/ml) | - (release amount<5 nmol/ml) | hydrolytic activity, absorption at 525 nm (OD525) ([1]; Gingivitis subject 1 (spirochete 7.3 %)): + (0.1≤OD525 <0.2); hydrolytic activity, absorption at 525 nm (OD525) ([1]; Gingivitis subject 2 (spirochete 16.7 %)): + (0.1≤OD525 <0.2); hydrolytic activity, absorption at 525 nm (OD525) ([1]; Gingivitis subject 3 (spirochete 20.5 %)): ++ (0.2≤OD525 <0.4); hydrolytic activity, absorption at 525 nm (OD525) ([1]; Gingivitis subject 4 (spirochete 6.8 %)): - (OD525 <0.1); hydrolytic activity, absorption at 525 nm (OD525) ([1]; Gingivitis subject 5 (spirochete 7.3 %)): - (OD525 <0.1); hydrolytic activity, absorption at 525 nm (OD525) ([1]; Healthy subject 1 (spirochete 0.1 %)): - (OD525 <0.1); hydrolytic activity, absorption at 525 nm (OD525) ([1]; Healthy subject 3 (spirochete 1.1 %)): - (OD525 <0.1); hydrolytic activity, absorption at 525 nm (OD525) ([1]; Healthy subject 4 (spirochete 0.6 %)): - (OD525 <0.1); hydrolytic activity, absorption at 525 nm (OD525) ([1]; Healthy subject 5 (spirochete 1.3 %)): - (OD525 <0.1); hydrolytic activity, absorption at 525 nm (OD525) ([1]; Periodontitis subject 1 (spirochete 45.2 %)): ++ (0.2≤OD525 <0.4); hydrolytic activity, absorption at 525 nm (OD525) ([1]; Periodontitis subject 2 (spirochete 30.3 %)): ++ (0.2≤OD525 <0.4); hydrolytic activity, absorption at 525 nm (OD525) ([1]; Periodontitis subject 3 (spirochete 34.6 %)): ++ (0.2≤OD525 <0.4); hydrolytic activity, absorption at 525 nm (OD525) ([1]; Periodontitis subject 4 (spirochete 21.2 %)): ++ (0.2≤OD525 <0.4); hydrolytic activity, absorption at 525 nm (OD525) ([1]; Periodontitis subject 5 (spirochete 40.3 %)): ++ (0.2≤OD525 <0.4); hydrolytic activity, absorption at 525 nm (OD525) ([1]; Periodontitis subject 6 (spirochete 35.1 %)): ++ (0.2≤OD525 <0.4)
2 | NCCCC[C@H](NC(=O)OCc1ccccc1)C(=O)N1CCC[C@H]1C(=O)Nc1ccc2ccccc2c1 [CxKP, N-carbobenzoxy-lysyl-proline-β-naphthylamide] (Cbz-Lys-Pro-βNA) | – | – | – | – | – | - (release amount<5 nmol/ml) | + (10 ≤release amount<20 nmol/ml) | - (release amount<5 nmol/ml) | ++ (20 ≤release amount<40 nmol/ml) | - (release amount<5 nmol/ml) | hydrolytic activity (average amount of released β-naphthylamine) (B. corporis): ++ (20 ≤release amount<40 nmol/ml); hydrolytic activity (average amount of released β-naphthylamine) (Actinomyces israelli [10]): - (release amount<5 nmol/ml); hydrolytic activity (average amount of released β-naphthylamine) (Treponema denticola [11]): + (10 ≤release amount<20 nmol/ml); hydrolytic activity (average amount of released β-naphthylamine) (B. denticola): ++ (20 ≤release amount<40 nmol/ml); hydrolytic activity (average amount of released β-naphthylamine) (Fusobacterium nucleatum [12]): - (release amount<5 nmol/ml); hydrolytic activity (average amount of released β-naphthylamine) (B. gingivalis [13]): ++ (20 ≤release amount<40 nmol/ml); hydrolytic activity (average amount of released β-naphthylamine) [14]: - (release amount<5 nmol/ml); hydrolytic activity (average amount of released β-naphthylamine) (B. melaninogenicus): ++ (20 ≤release amount<40 nmol/ml); hydrolytic activity (average amount of released β-naphthylamine) (B. intermedius): ++ (20 ≤release amount<40 nmol/ml)
3 | N=C(N)NCCC[C@H](NC(=O)CN)C(=O)Nc1ccc2ccccc2c1 [GR, glycyl-arginine-β-naphthylamide] (H-Gly-Arg-βNA) | + (10 ≤release amount<20 nmol/ml) | ++ (20 ≤release amount<40 nmol/ml) | ± (5 ≤release amount<10 nmol/ml) | - (release amount<5 nmol/ml) | - (release amount<5 nmol/ml) | - (release amount<5 nmol/ml) | + (10 ≤release amount<20 nmol/ml) | - (release amount<5 nmol/ml) | ++ (20 ≤release amount<40 nmol/ml) | - (release amount<5 nmol/ml) | –
